Measurements reported in US6376497B1, “Antifungal azole derivatives having a fluorinated vinyl group and process for preparing same” (Korea Research Institute of Chemical Technology, priority 1999, dated 2002).

Experiments:
Assay in all cases: In vitro antifungal activity, microbroth dilution MIC
Type in all cases: cell-based
Details in all cases: RPMI-1640, 35° C., 4 to 48 hours, no growth observed
[1] = system: Aspergillus furnigatus B. 19119
Outline: (§1)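 Broth microdilution adapted from NCCLS M27, in RPMI-1640 with 0.165 M MOPS, pH 7.0. Yeast or mould inoculum at 2×10^3 CFU/ml was mixed 1:1 with DMSO-derived compound solutions (200 to 0.10 μg/ml before mixing) and incubated at 35 °C for 4 to 48 h. MIC was the concentration showing no growth.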

[2] = system: Aspergillus niger A. 16404
Outline: as §1

[3] = system: Candida albicans A. 10231
Outline: as §1

Candida albicans C1-2 = system: Candida albicans C1-2
Outline: as §1

[4] = system: Candida albicans IFO. 1385
Outline: as §1

Candida krusei K. 11655 = system: Candida krusei K. 11655
Outline: as §1

[5] = system: Candida parapsitosis A. 7330
Outline: as §1

[6] = system: Candida pseudotropicalis K. 11658
Outline: as §1

[7] = system: Candida tropicalis A. 13803
Outline: as §1

[8] = system: Cryptococcus neoformans A. 34144
Outline: as §1

[9] = system: Cryptococcus neoformans B. 42419
Outline: as §1

[10] = system: Cryptococcus neoformans IFM. 40092
Outline: as §1

[11] = system: Torulopsis glabrata B. 16205
Outline: as §1

[12] = system: Trichophyton mentagrophytes A. 9129
Outline: as §1

[13] = system: Trichophyton mentagrophytes B. 32663
Outline: as §1

| Structure (SMILES) | Minimal inhibitory concentration(MIC), A furnigatus B. 19119 [1] | Minimal inhibitory concentration(MIC), A. niger A. 16404 [2] | Minimal inhibitory concentration(MIC), C. albicans A. 10231 [3] | Minimal inhibitory concentration(MIC), C. albicans C1-2 (Candida albicans C1-2) | Minimal inhibitory concentration(MIC), C. albicans IFO. 1385 [4] | Minimal inhibitory concentration(MIC), C. krusei K. 11655 (Candida krusei K. 11655) | Minimal inhibitory concentration(MIC), C. parapsitosis A. 7330 [5] | Minimal inhibitory concentration(MIC), C. pseudotropicalis K. 11658 [6] | Minimal inhibitory concentration(MIC), C. tropicalis A. 13803 [7] | Minimal inhibitory concentration(MIC), Cry. neoformans A. 34144 [8] | Minimal inhibitory concentration(MIC), Cry. neoformans B. 42419 [9] | Minimal inhibitory concentration(MIC), Cry. neoformans IFM. 40092 [10] | Minimal inhibitory concentration(MIC), T. glabrata B. 16205 [11] | Minimal inhibitory concentration(MIC), T. mentagrophytes A. 9129 [12] | Minimal inhibitory concentration(MIC), T. mentagrophytes B. 32663 [13] |
| --- | --- | --- | --- | --- | --- | --- | --- | --- | --- | --- | --- | --- | --- | --- | --- |
| Cc1ccc(C(=C(F)Oc2ccc(OCC3COC(Cn4ccnc4)(c4ccc(F)cc4F)O3)cc2)C(F)(F)F)cc1C (mixture of isomers) [Ex. 110] | >100 mg/L | >100 mg/L | 100 mg/L | 50.0 mg/L | 3.13 mg/L | >100 mg/L | >100 mg/L | >100 mg/L | >100 mg/L | 1.56 mg/L | 3.13 mg/L | 0.39 mg/L | 100 mg/L | 6.25 mg/L | 3.13 mg/L |
| FC(Oc1ccc(OCC2COC(Cn3ccnc3)(c3ccc(F)cc3F)O2)cc1)=C(c1cccc(C(F)(F)F)c1)C(F)(F)F (mixture of isomers) [Ex. 111] | >100 mg/L | >100 mg/L | 100 mg/L | 50.0 mg/L | 3.13 mg/L | >100 mg/L | 100 mg/L | 100 mg/L | >100 mg/L | 1.56 mg/L | 3.13 mg/L | 0.39 mg/L | 100 mg/L | 6.25 mg/L | 3.13 mg/L |
| FC(Oc1ccc(OCC2COC(Cn3ccnc3)(c3ccc(F)cc3F)O2)cc1)=C(c1ccc2c(c1)OCO2)C(F)(F)F (mixture of isomers) [Ex. 112] | >100 mg/L | >100 mg/L | 25.0 mg/L | 12.5 mg/L | 1.56 mg/L | >100 mg/L | >100 mg/L | 25.0 mg/L | 100 mg/L | 1.56 mg/L | 1.56 mg/L | 0.39 mg/L | 50.0 mg/L | 6.25 mg/L | 3.13 mg/L |
| FC(Oc1ccc(OCC2COC(Cn3ccnc3)(c3ccc(F)cc3F)O2)cc1)=C(c1ccc(Oc2ccccc2)cc1)C(F)(F)F (mixture of isomers) [Ex. 113] | >100 mg/L | >100 mg/L | >100 mg/L | >100 mg/L | 3.13 mg/L | >100 mg/L | >100 mg/L | 100 mg/L | >100 mg/L | 1.56 mg/L | 3.13 mg/L | 0.39 mg/L | >100 mg/L | 25.0 mg/L | 12.5 mg/L |
| FC(Oc1ccc(OCC2COC(Cn3ccnc3)(c3ccc(F)cc3F)O2)cc1)=C(c1cccc(Cl)c1)C(F)(F)F (mixture of isomers) [Ex. 114] | >100 mg/L | >100 mg/L | 50.0 mg/L | 25.0 mg/L | 1.56 mg/L | >100 mg/L | >100 mg/L | >100 mg/L | >100 mg/L | 1.56 mg/L | 1.56 mg/L | 0.39 mg/L | 50.0 mg/L | 6.25 mg/L | 3.13 mg/L |
| FC(Oc1ccc(OCC2COC(Cn3ccnc3)(c3ccc(F)cc3F)O2)cc1)=C(c1cccc(F)c1)C(F)(F)F (mixture of isomers) [Ex. 115] | >100 mg/L | >100 mg/L | 25.0 mg/L | 25.0 mg/L | 1.56 mg/L | >100 mg/L | >100 mg/L | >100 mg/L | 100 mg/L | 1.56 mg/L | 3.13 mg/L | 0.39 mg/L | 50.0 mg/L | 6.25 mg/L | 3.13 mg/L |
| FC(Oc1ccc(OCC2COC(Cn3ccnc3)(c3ccc(F)cc3F)O2)cc1)=C(c1cc(Cl)cc(Cl)c1)C(F)(F)F (mixture of isomers) [Ex. 116] | >100 mg/L | >100 mg/L | 100 mg/L | 100 mg/L | 3.13 mg/L | 100 mg/L | 100 mg/L | 25.0 mg/L | >100 mg/L | 1.56 mg/L | 1.56 mg/L | 0.20 mg/L | 50.0 mg/L | 6.25 mg/L | 3.13 mg/L |
